Entries after “also recorded” stand apart in the source; their conditions may differ.
Assays:
Assay type in all cases: cell-based, human
[1] = test system: M327I- and T349M-mutant OCI-AML3 cells; assay: dose-response assay, viable cell counts by flow cytometry
Experimental: (§1) MV4;11 and OCI-AML3 cell lines were passaged 24 h prior to nucleofection. The guide RNA (150 μmol) (sequence: 5′-[…]-3′) was added to Alt-R S.p. HiFi Cas9 nuclease (Integrated DNA Technologies) (125 μmol) followed by an incubation at room temperature (RT) for 20 min to allow formation of ribonucleoprotein (RNP) complexes. 2×10^5 cells were sedimented at 200 g for 10 min at RT, washed with PBS and resuspended in the SG Cell Line Nucleofector™ Solution (Lonza). Cells, Alt-R™ Cas9 Electroporation Enhancer (Lonza) (120 μmol) and the HDR donor oligonucleotide containing the MEN1-M327I mutation as well as a silent mutation at the protospacer adjacent motif (PAM) site (120 μmol) (sequence:5′-[…]-3′) were added to the RNP complex. For wildtype (WT) control, phosphate buffered saline (PBS) (Gibco™, Fisher Scientific) was added to the resuspended cells. Nucleofection was performed using a 16-well 20 μl Nucleocuvette™ stripe (Lonza) in a 4D-Nucleofector™ X Unit (Lonza) (program FF-100). Cells were incubated overnight in RPMI-1640+10% FCS+1% P/S containing 1 μM Alt-R™ HDR enhancer V2 (Lonza) (or DMSO for WT control). The following day, the medium was replaced by RPMI-1640+10% FBS+1% P/S. Single clones were selected in methylcellulose (MethoCult™ M3234, Stemcell™ Technologies) supplemented with 10% RPMI-1640, 10% FBS, 1% P/S and 25 nM SNDX-5613 (or DMSO for WT control), starting 3 days after nucleofection, and expanded in RPMI-1640+10% FCS+1% P/S supplemented with 25 nM SNDX-5613 (or DMSO for WT control). For the in vitro clonal selection assay of bulk nucleofected cells over time, 5×10^3 cells (3 replicates per condition) were seeded in RPMI-1640+10% FBS+1% P/S supplemented with 50 nM SNDX-5613 (or DMSO for WT control) 3 days after nucleofection. Cells were replated in fresh medium+drug every 3 days and viable cells were counted using the LSRFortessa™ (BD Biosciences) flow cytometer. Cumulative cell growth was calculated over 28 days. At each timepoint, cell pellets were frozen and genomic DNA was extracted subsequently using the DNeasy Blood and Tissue Kit™ (QIAGEN). Digital droplet-based PCR was performed from the genomic DNA to assess editing efficiency in the bulk cells over time. To analyze HDR efficiency in single cell clones, genomic DNA was PCR amplified using the Q5 High-Fidelity 2× Master Mix™ (New England BioLabs) and primers (forward: 5′-[…]-3′; reverse: 5′-[…]-3′), and the resulting 641 bp fragment containing the Cas9 cut site was gel-purified using the QIAquick Gel Extraction Kit™ (QIAGEN). Sanger sequencing was used to analyze HDR efficiency (primer 5′-[…]-3′).
(§2) To determine Menin-inhibitor responses of MOLM13, MV4;11 or OCI-AML3 cell lines expressing MEN1 mutants, 3×10^3 cells were plated per well in a non-tissue culture treated 96-well plate. The Menin-inhibitors were titrated on these cells in the following dose-range: DMSO, 3.9 nM, 7.813 nM, 15.625 nM, […], 62.5 nM, 125 nM, 250 nM, 500 nM, 1000 nM. Cells were treated in triplicates on each plate and the experiment was repeated 4 times. After 6 days, cells were split 1:7 and counts of viable cells in each well were determined after 10 d of treatment by flow cytometry (LSRFortessa™ with High-throughput sampler (HTS), BD Biosciences). Relative cell counts were calculated as % of DMSO control. The average of each triplicate was calculated and the mean of all replicates was plotted. Error bars represent the standard error of means (SEM).

[2] = test system: M327I- and T349M-mutant MV4;11 cells; assay: as above
Experimental: as §1, §2

[3] = test system: MOLM13 (MLL::AF9), MV4;11 (MLL::AF4) and OCI-AML3 (NPM1c) cells expressing MEN1-M327I, -G331R and -T349M; assay: dose-response assay after lentiviral expression of MEN1 mutants; conditions: viable cells after 10 days of drug treatment
Experimental: Cell lines were obtained from the “American Type Culture Collection” (ATCC) or the “Deutsche Sammlung von Mikroorganismen und Zellkulturen” (DSMZ) and cultured in RPMI-1640™ (for MOLM13, MV4;11 and OCI-AML3) or DMEM™ (for HEK-293T)+10% fetal bovine serum (FBS)+1% penicillin/streptomycin (P/S) (Life Technologies/Thermo Fisher Scientific) at 37° C., 5% CO2 atmosphere and 95% humidity. Cell lines were tested and maintained mycoplasma negative throughout all experiments. […]
To determine Menin-inhibitor responses of MOLM13, MV4;11 or OCI-AML3 cell lines expressing MEN1 mutants, 3×10^3 cells were plated per well in a non-tissue culture treated 96-well plate. […] After 6 days, cells were split 1:7 and counts of viable cells in each well were determined after 10 d of treatment by flow cytometry (LSRFortessa™ with High-throughput sampler (HTS), BD Biosciences). Relative cell counts were calculated as % of DMSO control. The average of each triplicate was calculated and the mean of all replicates was plotted. […]

Compound	sensitivity [1]	sensitivity [2]	drug sensitivity / resistance phenotype [3]
CNc1nc(NC2CCN(Cc3ccc4c(cc(C#N)n4CC45CC(NC=O)(C4)C5)c3C)CC2)c2cc(CC(F)(F)F)sc2n1 [MI-3454]	reduced sensitivity	reduced sensitivity	resistance phenotype could similarly be observed
CCN(C(=O)c1cc(F)ccc1Oc1cncnc1N1CC2(CCN(C[C@H]3CC[C@H](NS(=O)(=O)CC)CC3)CC2)C1)C(C)C [SNDX-5613, revumenib]	reduced sensitivity	reduced sensitivity	robust decrease in SNDX-5613 sensitivity; also recorded: sufficient to establish resistance
